We go through seven compounds from patent publication US9340768B2, “Transformation of glycerol and cellulosic materials into high energy fuels” (THE TEXAS A&M UNIVERSITY SYSTEM, priority 2008, dated 2016).

Entries after “also recorded” stand apart in the source; their conditions may differ.

Holding throughout (type): cell-based, Debaryomyces hansenii
Data set [1] concerns D. hansenii. Put plainly: Growth and oleagenicity of D. hansenii on pure carbon sources (Nile red plate staining). The note with it: for Growth: carbon source at 30 g/L in minimal media; for Oleagenicity: carbon source at 30 g/L, Nile Red fluorescence. As for the experimental part: D. hansenii (Dh) and S. cerevisiae (Sc) grown on minimal media containing no carbon source, 30 g/L of glucose, arabinose, xylose, carboxymethylcellulose or cellobiose. D. hansenii grew well on media containing glucose, arabinose and cellobiose. Lipid accumulation was indicated by Nile Red fluorescence in D. hansenii grown on glucose but not on cellobiose.
Culture media and cultivation conditions. For liquid culture, single colony of D. hansenii or S. cerevisiae were pre-cultured in 2 mL YPD or other desired media (see below) and incubated at 30° C. for 24 hr. Cells were counted using a hemacytometer and spun down at 3000 rpm for 15 minutes. Cells at a concentration of 1×10^6/mL were used to inoculate the desired media with 1% of the total volume. Medium A with limited nitrogen source (glucose 30 g/L, yeast extract 1.5 g/L, NH4Cl 0.1 g/L, KH2PO4 7.0 g/L, Na2HPO4 1.983 g/L, MgSO4.7H2O 1.5 g/L, FeCl3.6H2O 0.08 g/L, ZnSO4.7H2O 0.01 g/L, CaCl2.2H2O 0.1 g/L, MnSO4.H2O 0.07 mg/L, CuSO4.5H2O 0.1 mg/L, Co(NO3)2.6H2O 0.1 mg/L, pH 5.5; see Kimura et al., 2004) was used to support the growth of D. hansenii and induce cellular lipid accumulation. Medium A with sufficient nitrogen supply (NH4Cl 5 g/L) was used to support growth without the induction of lipid accumulation. To test the growth of D. hansenii on carbon sources other than glucose, glucose was dropped out from medium A and replaced with desired carbon sources at the same concentration except for glycerol, which was at 10% or 20% (v/v). […] For making media containing sorghum juice, raw juice was filter sterilized and added in the media at various concentrations of 5%, 10%, 25%, and 50% (v/v). Crude glycerol (Future Fuel Chemical Company, Arkansas, USA) contained 6% water, 88% glycerol, 2.564% ash by weight.
Nile red plate staining assay. Nile red (9-diethylamino-5H-benzo[α]phenoxazine-5-one) obtained from Sigma-Aldrich (Missouri, USA) was dissolved in Dimethyl sulfoxide (DMSO) at a concentration of 0.5 mg/mL and supplemented in medium A at a final concentration of 0.5 μg/mL. For direct observation of cellular lipid accumulation, D. hansenii grown on solid medium A with Nile red were observed using a UV light source (312 nm) as described (Spiekemann et al., 1999).

Data set [2] relates to D. hansenii. Put plainly: OmniLog Phenotype Microarray, osmolytes (PM9). The conditions noted are these: 30° C., OMNILOG PM. As for the experimental part:
PM assays. Inoculums for PM panels were prepared according to the manufacturer's protocols with modifications; Procedures for S. cerevisiae and other Fungi version 8 Feb. 2006 (Biolog) was used to prepare inoculums for PM01, PM02, and PM09, while version 29 Apr. 2008 (Biolog) was used for PM10. In brief, D. hansenii were streaked onto defined Medium A (Table 6) and cultivated at 30° C. for 48 hours. Cells were redistributed onto fresh agar using a sterile swab and incubated for an additional 4 hours at 30° C. to ensure active growth and avoid late-growth clumping (Oliver R Homann, Houjian Cai, 2005). (Kimura et al., 2004)
Cells were then transferred into the appropriate PM inoculation fluid (Table 7) and re-suspended to 62% transmittance (approximately 200 cells per 100 μL assay). PM1 and PM2 measure carbon source utilization and/or sensitivity; as such, the inoculation fluid lacks a defined carbon source (e.g., glycerol or glucose). In contrast, the inoculating fluids for PM9 (osmolytes) and PM10 (pH) required the inclusion of a carbon source (Table 7); in this case glucose was supplemented to 100 mM.
D. hansenii-containing inoculation fluid was inoculated into PM panels and incubated at 30° C. for 6.5 days. Color intensity for each well was measured every 15 minutes. Exemplary time course (kinetic) results (means) from representative PM assays are plotted.
In order to simplify the comparison of individual assay conditions, the full time-course kinetic plots were converted into a single unitless numerical value, which is weighted to more greatly value latter time points (e.g., endpoints), as described by Homann et al. (2005). Signal value=[(average signal+maximum signal)/2−average signal over first 2 h]; Represent the full time course by a single number; Weight the value towards latter time points; Subtract the “baseline” signal level for each well (Oliver R Homann, 2005) and Replicate PM assay runs were conducted, and the average of the signal values was used.

Data set [3] relates to D. hansenii. Put plainly: Microscopic quantification of secreted (extracellular) lipid bodies, Nile red. The note with it: 100 nM wortmannin, 144 hr post inoculation; untreated control more than 80 per 100 cells. As for the experimental part: (§1) Fluorescent microscopy. For Nile red stained cells or cultures, microscopic photographs were taken with an Olympus BX51 microscope (Olympus America, New York, USA) equipped with an Olympus DP70 camera using a 530-550 nm excitation filter, a 570 nm diachronic mirror and a 590 nm emission filter with a 60× objective lens. For microscopic quantification of secreted lipid bodies, 50 μL of the cell suspension in media A containing 0.2% agarose and Nile red, with or without the addition of 100 nM wortmannin, were inoculated in triplicate in microscopic frames that allow the agarose-based matrix to be sealed between two pieces of cover glasses. Slides were incubated in 90% moisture at 30° C. At 0, 48, 72, 96, 120, 144 hr post inoculation, the number of the cells and extracellular lipid bodies (stained with Nile red) were quantified. In parallel, the cells were stained with FUN1 (Invitrogen) for viability determination.

Data set [4] has as its system D. hansenii. Nature of the data set: Cell viability by FUN1 stain and microscopic quantification. The conditions noted are these: 100 nM wortmannin, FUN1 stain. On the procedure:
as §1

Consider `O=C[C@@H](O)[C@H](O)[C@H](O)CO` [Arabinose], for which, in the data set with D. hansenii [1], the Growth entry is on record as “grew well” and the Oleagenicity entry is “No”.
In the case of `[Cl-].[K+]` [KCl], the “level of salt solution tolerated without severe compromise in growth” value with D. hansenii [2] is given as ≤ 6%.
On the same count and under the same terms, as for `O=S(=O)([O-])[O-].[Na+].[Na+]` [Na2SO4], the figure is ≤ 5%.
Turning to `O=C[C@H](O)[C@@H](O)[C@H](O[C@@H]1O[C@H](CO)[C@@H](O)[C@H](O)[C@H]1O)[C@H](O)CO` [Cellobiose], in the data set with D. hansenii [1], the Growth entry is recorded as “grew well” and the Oleagenicity entry is “No”.
As for `[Cl-].[Na+]` [NaCl], the “level of salt solution tolerated without severe compromise in growth” value in the data set with D. hansenii [2] is given as “up to 6.5%”.
With `O=C[C@H](O)[C@@H](O)[C@H](O)CO` [Xylose], the Oleagenicity entry in the data set with D. hansenii [1] is “No”.
For the compound `COC[C@H]1OC(=O)c2coc3c2[C@@]1(C)C1=C(C3=O)[C@@H]2CCC(=O)[C@@]2(C)C[C@H]1OC(C)=O` [wortmannin], the “lipid bodies released from D. hansenii cells” value in the data set on D. hansenii [3] was “lower than 10 per 100 cells”. Moreover, the cell viability result in the data set on D. hansenii [4] is recorded as “remained unaffected; also recorded: not affected”.
